Measured values reported in the supplement of paper PMC10307832.

Columns and labels:
Experiment in all cases: relative viability (nuclei count vs DMSO), 5 days (fraction); higher = more cells survive
Gemcitabine = compound: Nc1ccn([C@@H]2O[C@H](CO)[C@@H](O)C2(F)F)c(=O)n1 [Gemcitabine]
Summary of the method: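 Viability was read as treated-well nuclei divided by vehicle-well nuclei, using the median across plates. Lung cancer cell lines in 1536-well plates were kept overnight at 37 °C, pinned with five √10-spaced library-drug doses, and after 5 days were Hoechst-stained, imaged at 4× and counted in MetaXpress. Plates passed only with control CV below 25% and at least one doubling.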

Gemcitabine + Trametinib = compound: Nc1ccn([C@@H]2O[C@H](CO)[C@@H](O)C2(F)F)c(=O)n1 [Gemcitabine] + CC(=O)Nc1cccc(-n2c(=O)n(C3CC3)c(=O)c3c(Nc4ccc(I)cc4F)n(C)c(=O)c(C)c32)c1 [Trametinib] (partner 0.02 µM)
Summary of the method: (§1)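 Each reported value is a median over duplicate plates. It expresses relative viability: treated-well nuclei count divided by vehicle-well nuclei count. Lung cancer cell lines in 1536-well plates were dosed by pin tool a day after seeding, alone with one drug or with a fixed anchor-drug dose plus five library-drug doses (not always all listed) in √10 steps, and nuclei were counted after 5 days.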

Gemcitabine + OSI-027 = compound: Nc1ccn([C@@H]2O[C@H](CO)[C@@H](O)C2(F)F)c(=O)n1 [Gemcitabine] + COc1cccc2cc(-c3nc([C@H]4CC[C@H](C(=O)O)CC4)n4ncnc(N)c34)[nH]c12 [OSI-027] (partner 0.5 µM)
Summary of the method: as §1

Gemcitabine + Phenformin = compound: Nc1ccn([C@@H]2O[C@H](CO)[C@@H](O)C2(F)F)c(=O)n1 [Gemcitabine] + N=C(N)NC(=N)NCCc1ccccc1 [Phenformin] (partner 250 µM)
Summary of the method: as §1

| Cell Line | relative viability (Gemcitabine; 0.001 µM) | relative viability (Gemcitabine; 0.003162 µM) | relative viability (Gemcitabine; 0.01 µM) | relative viability (Gemcitabine; 0.03162 µM) | relative viability (Gemcitabine; 0.1 µM) | relative viability (Gemcitabine + Trametinib; first compound 0.001 µM) | relative viability (Gemcitabine + Trametinib; first compound 0.003162 µM) | relative viability (Gemcitabine + Trametinib; first compound 0.01 µM) | relative viability (Gemcitabine + Trametinib; first compound 0.03162 µM) | relative viability (Gemcitabine + Trametinib; first compound 0.1 µM) | relative viability (Gemcitabine + OSI-027; first compound 0.001 µM) | relative viability (Gemcitabine + OSI-027; first compound 0.003162 µM) | relative viability (Gemcitabine + OSI-027; first compound 0.01 µM) | relative viability (Gemcitabine + OSI-027; first compound 0.03162 µM) | relative viability (Gemcitabine + OSI-027; first compound 0.1 µM) | relative viability (Gemcitabine + Phenformin; first compound 0.001 µM) | relative viability (Gemcitabine + Phenformin; first compound 0.003162 µM) | relative viability (Gemcitabine + Phenformin; first compound 0.01 µM) | relative viability (Gemcitabine + Phenformin; first compound 0.03162 µM) | relative viability (Gemcitabine + Phenformin; first compound 0.1 µM) |
| --- | --- | --- | --- | --- | --- | --- | --- | --- | --- | --- | --- | --- | --- | --- | --- | --- | --- | --- | --- | --- |
| RERF-LC-KJ | 1.01 | 1 | 0.973 | 0.496 | 0.247 | 0.893 | 0.827 | 0.845 | 0.386 | 0.24 | 0.62 | 0.508 | 0.418 | 0.261 | 0.225 | 0.454 | 0.455 | 0.404 | 0.285 | 0.26 |
| SK-LU-1 | 1.01 | 0.479 | 0.243 | 0.191 | 0.228 | 0.512 | 0.373 | 0.267 | 0.161 | 0.241 | 0.352 | 0.208 | 0.146 | 0.165 | 0.143 | 0.578 | 0.272 | 0.154 | 0.115 | 0.124 |
| SK-MES-1 | 0.945 | 0.473 | 0.216 | 0.203 | 0.17 | 0.605 | 0.551 | 0.25 | 0.237 | 0.178 | 0.367 | 0.195 | 0.142 | 0.122 | 0.127 | 0.552 | 0.249 | 0.191 | 0.158 | 0.154 |
| SW 900 | 0.802 | 0.424 | 0.153 | 0.134 | 0.141 | 0.722 | 0.609 | 0.119 | 0.142 | 0.13 | 0.526 | 0.241 | 0.13 | 0.0871 | 0.0793 | 0.654 | 0.181 | 0.0793 | 0.0687 | 0.0927 |
| SW 1573 | 0.911 | 0.736 | 0.239 | 0.101 | 0.0671 | 0.46 | 0.405 | 0.117 | 0.0639 | 0.0615 | 0.512 | 0.381 | 0.0711 | 0.0797 | 0.0431 | 0.353 | 0.202 | 0.104 | 0.0718 | 0.0652 |
| UMC-11 | 1.04 | 0.992 | 0.974 | 0.869 | 0.375 | 0.627 | 0.635 | 0.716 | 0.609 | 0.161 | 0.474 | 0.474 | 0.478 | 0.352 | 0.197 | 0.384 | 0.349 | 0.328 | 0.275 | 0.185 |
